Reference: patent US9616128B2, “Pharmaceutical compositions comprising paracetamol and process for preparing the same” (Troikaa Pharmaceuticals Ltd, priority 2010, dated 2017)
Converted amounts (≈) assume the structure as drawn.

Legend:
physchem = conditions: solubility of paracetamol
Procedure: The solubility of paracetamol in various solvents, such as glycofurol, PEG, ethanol, and propylene glycol were determined by us. […] The challenge lies in tailoring the appropriate solvent system to provide injectables containing paracetamol in 166 mg/ml to 250 mg/ml so that the therapeutic dose of paracetamol (500 mg) can be delivered in 2 to 3 ml without compromising in viscosity of these injectables.

[1] = Viscosity of paracetamol injectable solutions; format: physicochemical; conditions: solution in glycofurol at concentration of 205 mg/ml
Procedure: The solitary prior art in which the solution of paracetamol ranging from 60 mg/ml (6% w/v) to 150 mg/ml (15% w/v) have been prepared in glycofurol:ethanol:water (about 44:10:46 or about 4:1:4) and glycofurol: water (48:52 or about 1:1). […] 5 CPS and 14.8 CPS respectively. It is to be noted that the concentrations of the solutions reported in the said prior art is between 60 mg/ml to 150 mg/ml.

For CC(=O)Nc1ccc(O)cc1 [paracetamol, p-acetylaminophenol], the solubility (physchem; organic solvent or mixture) was roughly 205 mg/mL (≈ 1360 mM), the solubility (physchem; water) was roughly 14 mg/mL (≈ 92.6 mM) and the “viscosity of the paracetamol solution” value [1] was “about 57 CPS”.
